In ChEMBL document CHEMBL4651402, “Screening of ~5500 FDA-approved drugs and clinical candidates for anti-SARS-CoV-2 activity” (2021):

What was measured:
SARS-CoV-2 [1] = assay: microbe, parasite or virus in culture; settings: Severe acute respiratory syndrome coronavirus 2, Vero C1008, 48 h
SARS-CoV-2 [2] = assay: microbe, parasite or virus in culture; type: functional, organism-based, Chlorocebus sabaeus, Vero C1008; settings: Severe acute respiratory syndrome coronavirus 2, Vero C1008, 48 h
in vitro = settings: chlorocebus sabaeus, Vero E6 (Vero C1008) cells

SMILES | IC50 (SARS-CoV-2 [1]) [µM] | IC50 (SARS-CoV-2 [1]; read-out: pIC50 (converted)) [µM] | IC50 (SARS-CoV-2 [2]; read-out: IC50) [µM] | IC50 (SARS-CoV-2 [2]; read-out: pIC50 (converted)) [µM] | CC50 at 48 h (in vitro; CC50) [µM] | CC50 at 48 h (in vitro; pCC50) [µM]
Cc1cc2nc3c(=O)[nH]c(=O)nc-3n(C[C@H](O)[C@H](O)[C@H](O)CO)c2cc1C [RIBOFLAVIN] | ~11.2 | ~11.2 | > 50.1 | > 50.1 | > 50.1 | > 50.1
CCN(CC)CCCC(C)Nc1ccnc2cc(Cl)ccc12 (stereo not drawn) [CHLOROQUINE] | ~5.86 | ~5.89 | ~9.46 | ~9.55 | ~38.7 | ~38.9
COc1ccc2c(c1)N(CCCN(C)C)c1ccccc1S2 [METHOXYPROMAZINE] | > 20 | > 20 | > 100 | > 100 | 14.1 | 14.1
O=C(N[C@H]1CN2CCC1CC2)c1cc2cccc(Cl)c2s1 [ENCENICLINE] | > 100 | > 100 | > 100 | > 100 | 20.9 | 20.9
CO[C@H]1CC[C@H](n2c([C@H]3CCCC(=O)N3c3ccc(F)c(F)c3)nc3cc(-c4c(C)noc4C)ccc32)CC1 (relative stereo) | > 100 | > 100 | > 100 | > 100 | 9.12 | 9.12
COc1ccc2cc(-c3cc(-c4cc(Cl)cc(Cl)c4)nn3[C@@H](C)c3ccc(C(=O)NCCC(=O)O)cc3)ccc2c1 [MK-0893] | > 100 | > 100 | > 100 | > 100 | ~18.8 | ~18.6
CN1CCC[C@@H](CN2c3ccccc3Sc3ccccc32)C1 | > 20 | > 20 | > 100 | > 100 | 11.8 | 11.7
COc1cccc2c1C(=O)c1c(O)c3c(c(O)c1C2=O)C[C@@](O)(C(=O)CO)C[C@@H]3O[C@H]1C[C@H](N)[C@H](O)[C@H](C)O1 [DOXORUBICIN] | 8.04 | 7.94 | ~33.1 | ~33.1 | 64.6 | 64.6
CCC(=O)c1ccc2c(c1)N(CCCN1CCN(CCO)CC1)c1ccccc1S2 [CARPHENAZINE] | > 100 | > 100 | > 100 | > 100 | 6.31 | 6.31
COc1ccc2nc3c(c(N)c2c1)CCCC3 | ~11.5 | ~11.5 | > 25.1 | > 25.1 | 47.9 | 47.9
CN1CCCN(C(c2ccccc2)c2ccc(Cl)cc2)CC1 (stereo not drawn) [HOMOCHLORCYCLIZINE] | > 20 | > 20 | > 25.1 | > 25.1 | 21.1 | 20.9
COC(=O)N[C@H](C(=O)N1CCC[C@H]1c1nc(-c2ccc3cc(-c4ccc5[nH]c([C@@H]6CCCN6C(=O)[C@@H](NC(=O)OC)C(C)C)nc5c4)ccc3c2)c[nH]1)C(C)C | > 100 | > 100 | > 100 | > 100 | 12.7 | 12.6
O=C(NO)c1ccc(C2=Nc3ccccc3Oc3ccccc32)cc1 | > 100 | > 100 | > 100 | > 100 | 1.55 | 1.55
CCCOc1ccc(C(=O)CCN2CCCCC2)cc1 [PROPIPOCAINE] | > 100 | > 100 | > 100 | > 100 | 31.6 | 31.6
CCCCOc1cc(C(=O)NCCN(CC)CC)c2ccccc2n1 [DIBUCAINE] | 29.1 | 28.8 | ~29.5 | ~29.5 | ~39.6 | ~39.8
CO[C@H]1CC[C@H](n2c([C@@H]3CCCC(=O)N3c3ccc(F)c(F)c3)nc3cc(-c4c(C)noc4C)ccc32)CC1 [INOBRODIB] | > 100 | > 100 | > 100 | > 100 | 3.16 | 3.16
CC(=O)c1ccc2c(c1)N(CCCN(C)C)c1ccccc1S2 [ACEPROMAZINE] | > 100 | > 100 | > 100 | > 100 | 22.4 | 22.4
COc1ccc2c(c1)CCC(c1ccccc1)=C2c1ccc(OCCN2CCCC2)cc1 [NAFOXIDINE] | > 100 | > 100 | > 100 | > 100 | 3.85 | 3.8
C#C[C@]1(O)CCC2C3CCc4cc(OC5CCCC5)ccc4C3CCC21C (stereo partly drawn) | 8.71 | 8.71 | > 100 | > 100 | 7.59 | 7.59
CN[C@@H]1C[C@@H](c2ccc(Cl)c(Cl)c2)c2ccccc21 [(R,S)-INDATRALINE] | 8.32 | 8.32 | > 100 | > 100 | 8.51 | 8.51
Cn1cncc1[C@@](N)(c1ccc(Cl)cc1)c1ccc2c(c1)c(-c1cccc(Cl)c1)cc(=O)n2C [TIPIFARNIB] | > 100 | > 100 | > 100 | > 100 | 13.3 | 13.2
CC(C)(C)c1ccc(C(O)CCCN2CCC(C(O)(c3ccccc3)c3ccccc3)CC2)cc1 (stereo not drawn) [TERFENADINE] | > 100 | > 100 | > 100 | > 100 | ~5.13 | ~5.13
Cc1cc(-c2ccc(/N=N/c3ccc4c(S(=O)(=O)O)cc(S(=O)(=O)O)c(N)c4c3O)c(C)c2)ccc1/N=N/c1ccc2c(S(=O)(=O)O)cc(S(=O)(=O)O)c(N)c2c1O [EVANS BLUE FREE ACID] | > 100 | > 100 | > 100 | > 100 | 18 | 17.8
CN1CCN(CCCN2c3ccccc3Sc3ccc(S(=O)(=O)N(C)C)cc32)CC1 [THIOPROPERAZINE] | 13.2 | 13.2 | > 100 | > 100 | 6.31 | 6.31
CCCC(C(=O)OCCN(CC)CC)(c1ccccc1)c1ccccc1 [PROADIFEN] | 5.13 | 5.13 | > 100 | > 100 | 24 | 24
C[C@H]1[C@H]2CC[C@H]3[C@@H]4CC=C5C[C@@H](N(C)C)CC[C@]5(C)[C@H]4CC[C@]23CN1C [CONESSINE] | 12 | 12 | > 25.1 | > 25.1 | 34.7 | 34.7
CC(CN(C)C)CN1c2ccccc2Sc2ccccc21 (stereo not drawn) | 17.4 | 17.4 | > 25.1 | > 25.1 | 21.4 | 21.4
Cc1ccc(C(=O)N(CCCN)[C@@H](c2oc3cc(Cl)ccc3c(=O)c2Cc2ccccc2)C(C)C)cc1 [SB-743921] | > 50.1 | > 50.1 | > 50.1 | > 50.1 | 2.63 | 2.63
